Consider three compounds from US7968585B2, “Inhibitors of 11-beta-hydroxysteroid dehydrogenase 1” (Eli Lilly and Company, priority 2006, dated 2011).

In one assay the target is T1, 11β-HSD1 (Homo sapiens, UniProt P28845).
T1 construct: assay medium containing 12 ng/mL hTNFα to induce expression of 11β-HSD1; endogenous in cells; host or cells: primary human aortic smooth muscle cells (AoSMC), induced with hTNFα
In words: Human Aortic Smooth Muscle Cell Assay (cortisone to cortisol conversion). Type of assay: cell-based. Particulars: primary human aortic smooth muscle cells (AoSMC), hTNFα induced, cortisol immunoassay. The method, then:
Human Aortic Smooth Muscle Cell Assay
Primary human aortic smooth muscle cells (AoSMC) are cultured in 5% FBS growth medium to a passage number of 6, then pelleted by centrifugation and resuspended at a density of 9×10^4 cells/mL in 0.5% FBS assay medium containing 12 ng/mL hTNFα to induce expression of 11β-HSD1. Cells are seeded into 96-well tissue culture assay plates at 100 μL/well (9×10^3 cells/well) and incubated for 48 hours at 37° C., 5% CO2. Following induction, cells are incubated for 4 hours at 37° C., 5% CO2 in assay medium containing test compounds then treated with 10 μL/well of 10 μM cortisone solubilized in assay medium, and incubated for 16 hours at 37° C., 5% CO2. Medium from each well is transferred to a plate for subsequent analysis of cortisol using a competitive fluorescence resonance time resolved immunoassay. In solution, an allophycocyanin (APC)-cortisol conjugate and free cortisol analyte compete for binding to a mouse anti-cortisol antibody/Europium (Eu)-anti mouse IgG complex. Higher levels of free cortisol result in diminishing energy transfer from the Europium-IgG to the APC-cortisol complex resulting in less APC fluorescence. Fluorescent intensities for Europium and APC are measured using a LJL Analyst AD. Europium and APC excitation is measured using 360 nm excitation and 615 nm and 650 nm emission filters respectively. Time resolved parameters for Europium were 1000 μs integration time with a 200 μs delay. APC parameters are set at 150 μs integration time with a 50 μs delay. Fluorescent intensities measured for APC are modified by dividing by the Eu fluorescence (APC/Eu). This ratio is then used to determine the unknown cortisol concentration by interpolation using a cortisol standard curve fitted with a 4-parameter logistic equation. These concentrations are then used to determine compound activity by plotting concentration versus % inhibition, fitting with a 4-parameter curve and reporting the IC50.

In the next assay the test system is cortisone conversion. In words: Acute In Vivo Cortisone Conversion Assay. Particulars: male C57BL/6 mice, oral dose of 10 mg/kg, cortisone challenge after 16 hours, serum cortisol. On the procedure:
Acute In Vivo Cortisone Conversion Assay
In general, compounds are dosed orally into mice, the mice are challenged with a subcutaneous injection of cortisone at a set timepoint after compound injection, and the blood of each animal is collected some time later. Separated serum is then isolated and analyzed for levels of cortisone and cortisol by LC-MS/MS, followed by calculation of mean cortisol and percent inhibition of each dosing group. Specifically, male C57BL/6 mice are obtained from Harlan Sprague Dawley at average weight of 25 grams. Exact weights are taken upon arrival and the mice randomized into groups of similar weights. Compounds are prepared in 1% w-w HEC, 0.25% w-w polysorbate 80, 0.05% w-w Dow Corning antifoam #1510-US at various doses based on assumed average weight of 25 grams. Compounds are dosed orally, 200 μl per animal, followed by a subcutaneous dose, 200 μl per animal, of 30 mg/kg cortisone at 1 to 24 hours post compound dose. At 10 minutes post cortisone challenge, each animal is euthanized for 1 minute in a CO2 chamber, followed by blood collection via cardiac puncture into serum separator tubes. Once fully clotted, tubes are spun at 2500×g, 4° C. for 15 minutes, the serum transferred to wells of 96-well plates (Corning Inc, Costar #4410, cluster tubes, 1.2 ml, polypropylene), and the plates are frozen at −20° C. until analysis by LC-MS/MS. […]

The target in assay [1] is recombinant human 11β-HSD type 1 enzyme (Homo sapiens, UniProt P28845). In words: 11β-HSD Type 1 Enzyme Assay (NADPH fluorescence). Particulars: three hour incubation, read-out: Human 11-βHSD1 IC50. It is filed as biochemical. The method, then: 11β-HSD Type 1 Enzyme Assay
recombinant human 11β-HSD type 1 enzyme, sequence (P28845 whole entry): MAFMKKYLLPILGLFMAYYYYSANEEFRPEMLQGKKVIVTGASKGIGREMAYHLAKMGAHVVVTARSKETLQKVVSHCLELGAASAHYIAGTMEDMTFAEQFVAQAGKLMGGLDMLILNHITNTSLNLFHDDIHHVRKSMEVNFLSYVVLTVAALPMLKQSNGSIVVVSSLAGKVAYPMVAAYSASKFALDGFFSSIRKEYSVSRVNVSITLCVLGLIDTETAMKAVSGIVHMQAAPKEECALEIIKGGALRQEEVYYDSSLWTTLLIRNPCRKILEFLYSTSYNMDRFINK
Human 11β-HSD type 1 activity is measured by assaying NADPH production by fluorescence assay. Solid compounds are dissolved in DMSO to a concentration of 10 mM. Twenty microliters of each are then transferred to a column of a 96-well polypropylene Nunc plate where they are further diluted 50-fold followed by subsequent two-fold titration, ten times across the plate with additional DMSO using a Tecan Genesis 200 automated system. Plates are then transferred to a Tecan Freedom 200 system with an attached Tecan Temo 96-well head and an Ultra 384 plate reader. Reagents are supplied in 96-well polypropylene Nunc plates and are dispensed individually into black 96-well Molecular Devices High Efficiency assay plates (40 μL/well capacity) in the following fashion: 9 μL/well of substrate (2.22 mM NADP, 55.5 μM Cortisol, 10 mM Tris, 0.25% Prionex, 0.1% Triton X100), 3 μL/well of water to compound wells or 3 μL to control and standard wells, 6 μL/well recombinant human 11β-HSD type 1 enzyme, 2 μL/well of compound dilutions. […] Plates are then shaken once more for 15 seconds then placed into an Ultra 384 microplate reader (355EX/460EM) for detection of NADPH fluorescence.

T1 sequence (P28845 whole entry): as above

As to `O=C(c1ccc(-c2cc(Cl)c(CN3CCC4(CCCCC4)C3=O)c(Cl)c2)cc1)N1CCC(C(F)(F)F)CC1` [Example 5, 2-[3,5-Dichloro-4′-(4-trifluoromethyl-piperidine-1-carbonyl)-biphenyl-4-ylmethyl]-2-aza-spiro[4.5]decan-1-one], it took 47 nM to reach half-maximal inhibition on 11β-HSD1 (IC50). Besides, in the assay with cortisone conversion, the “% Inhibition after 16 hours (dose of 10 (mg/kg))” value came out at 69.3%.

In the case of `O=C(c1ccc(-c2cc(Cl)c(CN3CCC4(CCCCC4)C3=O)c(Cl)c2)cc1)N1CCN(CCF)CC1` [Example 6, 2-{3,5-Dichloro-4′-[4-(2-fluoro-ethyl)-piperazine-1-carbonyl]-biphenyl-4-ylmethyl}-2-aza-spiro[4.5]decan-1-one], the IC50 in assay [1] was 888 nM; against 11β-HSD1, 20.5 nM. Also, the “% Inhibition after 16 hours (dose of 10 (mg/kg))” value in the assay on cortisone conversion is reported as 41.2%.

Consider `O=C1N(Cc2c(Cl)cc(-c3ccc(F)cc3)cc2Cl)CCC12CCc1n[nH]cc1C2` (stereo not shown) [Example 14], for which the IC50 in assay [1] was found to be 552 nM; against 11β-HSD1, 21.5 nM.
